Assay [1] in a line: HEp-2 cell cytotoxicity, dose response, cytotoxicity control for RSV inhibitor project, HTS (AID 2410). The note with it: human respiratory syncytial virus. It counts as functional.
Assay [2] in a line: cells.
Assay [3] is described as follows: inhibitors of firefly luciferase expression or activity, dose response, H4 neuroglioma cells, luminescence (AID 1990). It counts as functional, cell-based.
Assay [4] deals with BJ. The assay can be described thus: cells. In kind it is functional, cell-based. The note with it: Homo sapiens.
Assay [5] in a line: Luminescence Cell-Based Dose Response HTS to Identify Inhibitors of 5'UTR Stem-Loop Driven Prion Protein mRNA Translation in H4 Neuroglioblastoma Cells. [Related pubchem assays: 1827 (Project Summary), 1813 (Primary HTS)]. In kind it is functional.
Assay [6] has as its system BJ. The assay can be described thus: cytotoxicity toward BJ-TERT fibroblasts, dose response, cell-based, RAS-independent, luminescence (AID 1933). In kind it is functional. The note with it: Homo sapiens.
Assay [7] is described as follows: cytotoxicity in KRAS-transformed pancreatic duct cells, primary screen, cell-based, fluorescence, HTS (AID 431). It counts as functional. The settings on record: Homo sapiens.
Assay [8] in a line: inhibitors of SNCA 5'UTR-driven reporter translation, confirmation, H4 neuroglioma cells, luminescence (AID 1988). It counts as functional, cell-based.
Assay [9] in a line: Luminescence Cell-Based Dose Retest to Confirm Inhibitors of Cancer Stem Cells. [Related pubchem assays (depositor defined):AID2717, AID2721]. In kind it is functional. The settings on record: Homo sapiens.
Assay [10] has as its system INS1. The assay is described as follows: beta cell apoptosis inhibitors, cytokine rescue, dose response, luminescence, retest (AID 449756).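 Note: cell death triggered by IL-1 beta plus TNF-alpha plus IFN-gamma mixture; protective hits raise ATP signal compared with cytokine alone wells.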 The settings on record: Rattus norvegicus. In kind it is functional, cell-based.
Assay [11] in a line: cytotoxicity in HPDE-C7 cells, cell-based, fluorescence, HTS (AID 430). In kind it is functional. The note with it: Homo sapiens.
The test system of assay [12] is BJ. The assay can be described thus: cytotoxicity toward BJ-TERT-LT-ST fibroblasts, dose response, cell-based, RAS-independent, luminescence (AID 1935).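 Note: BJ fibroblasts immortalized with TERT plus LT and ST oncogenes.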 The note with it: Homo sapiens. It counts as functional.
The nature of assay [13]: cytotoxicity toward DRD oncogenic fibroblasts, dose response, cell-based, non-viral oncogenic, luminescence (AID 1934). It counts as functional. The settings on record: Homo sapiens.
The target in assay [14] is Induced myeloid leukemia cell differentiation protein Mcl-1 (Homo sapiens, UniProt Q07820). In kind it is functional.
Induced myeloid leukemia cell differentiation protein Mcl-1, sequence (Q07820 whole entry): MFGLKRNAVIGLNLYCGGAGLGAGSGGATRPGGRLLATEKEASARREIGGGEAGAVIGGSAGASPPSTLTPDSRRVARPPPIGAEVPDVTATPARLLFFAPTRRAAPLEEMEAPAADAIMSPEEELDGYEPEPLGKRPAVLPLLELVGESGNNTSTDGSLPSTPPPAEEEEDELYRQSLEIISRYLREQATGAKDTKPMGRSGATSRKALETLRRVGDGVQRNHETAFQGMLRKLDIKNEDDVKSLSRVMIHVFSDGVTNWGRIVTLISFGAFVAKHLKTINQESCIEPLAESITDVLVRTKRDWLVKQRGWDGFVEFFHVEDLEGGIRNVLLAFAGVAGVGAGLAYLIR
Assay [15] concerns Staphylococcus aureus. The assay can be described thus: Inhibitors of Bacterial Quorum Sensing Structure Activity Relationship (SAR) Analysis: Dose Response Assay. [Related pubchem assays: 700, 527 ]. In kind it is functional, organism-based.
Assay [16] has as its target T1, Aryl hydrocarbon receptor (Homo sapiens, UniProt P35869).
T1 sequence (P35869 whole entry): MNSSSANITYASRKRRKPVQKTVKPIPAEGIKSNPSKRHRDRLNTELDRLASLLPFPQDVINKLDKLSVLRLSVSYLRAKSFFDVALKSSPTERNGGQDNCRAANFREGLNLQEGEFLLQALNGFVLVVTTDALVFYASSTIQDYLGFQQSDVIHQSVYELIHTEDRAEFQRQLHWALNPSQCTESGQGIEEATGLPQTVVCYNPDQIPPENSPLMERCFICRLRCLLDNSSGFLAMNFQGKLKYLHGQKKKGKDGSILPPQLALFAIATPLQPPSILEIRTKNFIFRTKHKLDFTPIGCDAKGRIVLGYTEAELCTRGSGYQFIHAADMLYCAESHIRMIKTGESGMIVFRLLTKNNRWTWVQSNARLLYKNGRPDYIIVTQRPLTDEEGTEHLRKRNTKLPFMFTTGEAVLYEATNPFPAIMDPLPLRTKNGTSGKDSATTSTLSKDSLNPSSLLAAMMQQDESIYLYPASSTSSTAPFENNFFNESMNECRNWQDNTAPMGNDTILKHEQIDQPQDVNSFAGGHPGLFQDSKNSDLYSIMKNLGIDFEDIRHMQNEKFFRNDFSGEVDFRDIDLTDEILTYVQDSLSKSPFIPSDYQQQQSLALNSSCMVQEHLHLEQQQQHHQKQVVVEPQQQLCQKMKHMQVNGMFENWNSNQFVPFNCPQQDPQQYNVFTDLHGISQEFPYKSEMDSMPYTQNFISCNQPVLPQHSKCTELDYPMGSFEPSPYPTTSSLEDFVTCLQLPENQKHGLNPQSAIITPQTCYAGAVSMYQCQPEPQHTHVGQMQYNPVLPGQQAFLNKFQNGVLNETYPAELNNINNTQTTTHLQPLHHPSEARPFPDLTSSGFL
The assay can be described thus: Luminescence-based cell-based high throughput dose response assay for activators of the Aryl Hydrocarbon Receptor (AHR). [Related pubchem assays: 2796 (Primary screen (AHR activators in singlicate)), 2845 (Confirmation screen (AHR activators in triplicate)), 434939 (Counterscreen (PXR activators in triplicate)), 2804 (Summary (AHR activators))]. In kind it is ADME.

Assay [17] deals with T2, RNA-binding protein pos-1 (Caenorhabditis elegans, UniProt G5EF15).
T2 sequence (G5EF15 whole entry): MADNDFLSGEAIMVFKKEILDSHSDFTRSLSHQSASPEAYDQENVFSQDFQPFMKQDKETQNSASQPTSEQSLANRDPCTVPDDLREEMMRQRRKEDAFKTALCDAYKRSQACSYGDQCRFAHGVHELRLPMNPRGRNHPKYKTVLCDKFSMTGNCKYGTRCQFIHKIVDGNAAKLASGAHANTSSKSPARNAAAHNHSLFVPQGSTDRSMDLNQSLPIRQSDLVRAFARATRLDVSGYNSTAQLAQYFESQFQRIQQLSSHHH
The assay can be described thus: inhibitors of POS-1/mex-3 RNA binding, dose response, biochemical, fluorescence polarization (AID 1964).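 Note: purified POS-1 fused to maltose binding protein made in E. coli; potency of compounds blocking POS-1 binding to fluorescent RNA.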

The target of assay [18] is T3, Zinc finger protein mex-5 (Caenorhabditis elegans, UniProt Q9XUB2).
T3 sequence (Q9XUB2 whole entry): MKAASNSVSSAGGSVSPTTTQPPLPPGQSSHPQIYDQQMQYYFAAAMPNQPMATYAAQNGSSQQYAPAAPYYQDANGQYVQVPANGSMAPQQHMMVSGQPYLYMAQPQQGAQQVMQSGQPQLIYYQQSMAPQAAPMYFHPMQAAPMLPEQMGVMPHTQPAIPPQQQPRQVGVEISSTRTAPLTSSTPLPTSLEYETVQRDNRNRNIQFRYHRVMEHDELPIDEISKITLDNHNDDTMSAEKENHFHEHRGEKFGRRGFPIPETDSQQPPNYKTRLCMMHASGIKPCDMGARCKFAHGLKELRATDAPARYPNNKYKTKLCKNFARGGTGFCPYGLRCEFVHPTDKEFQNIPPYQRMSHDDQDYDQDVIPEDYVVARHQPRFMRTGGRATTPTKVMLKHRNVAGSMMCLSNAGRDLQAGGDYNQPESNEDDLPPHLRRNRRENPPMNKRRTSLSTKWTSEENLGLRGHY
The assay is described as follows: MEX-5/TCR-2 RNA interaction inhibitors, dose response, biochemical, C. elegans, fluorescence polarization (AID 1960).

Assay [19] can be described thus: cells. In kind it is functional, cell-based.
Assay [20] is described as follows: luciferase reporter signal reduction – luminescence, H4-C neuroglioblastoma cells, dose response (AID 2458).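 Note: H4 neuroglioblastoma cells stably carrying a luciferase reporter gene fusion.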 It counts as functional, cell-based.
Assay [21] is described as follows: inhibitors of SNCA 5'UTR-driven translation, confirmation, luminescence, H4 neuroglioblastoma cells, dose confirmation (AID 2454).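 Note: H4 neuroglioblastoma cells carrying an alpha-synuclein 5'UTR luciferase reporter; potency for inhibition of the luciferase signal.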 It counts as functional, cell-based.
Assay [22] addresses Insulin-degrading enzyme (Homo sapiens, UniProt P14735). The assay can be described thus: Dose Response: Fluorescence polarization-based cell-based high throughput dose response assay for inhibitors of insulin-degrading enzyme (IDE). [Related pubchem assays: 434962 (Primary screen (IDE inhibitors in singlicate)), 449730 (Counterscreen (Cytotoxicity in triplicate)), 435028 (Confirmation (IDE inhibitors in triplicate)), 434984 (Summary …. In kind it is functional.

Assay [23] in a line: Counterscreen for IDE inhibitors: Luminescence-based cell-based high throughput dose response assay to identify compounds that are cytotoxic to HEK cells. [Related pubchem assays: 434962 (Primary screen (IDE inhibitors in singlicate)), 449730 (Counterscreen (Cytotoxicity in triplicate)), 435028 (Confirmation (IDE inhibitors in triplicate)) …. The settings on record: HEK293. It counts as functional.

Structures are written as SMILES. Calls of active or inactive are those of the source. Cut-off read from the data, not from the text of the source, for most assays here: actives have a measured EC50 and inactives only a lower limit.

Insulin-degrading enzyme, sequence (P14735 whole entry): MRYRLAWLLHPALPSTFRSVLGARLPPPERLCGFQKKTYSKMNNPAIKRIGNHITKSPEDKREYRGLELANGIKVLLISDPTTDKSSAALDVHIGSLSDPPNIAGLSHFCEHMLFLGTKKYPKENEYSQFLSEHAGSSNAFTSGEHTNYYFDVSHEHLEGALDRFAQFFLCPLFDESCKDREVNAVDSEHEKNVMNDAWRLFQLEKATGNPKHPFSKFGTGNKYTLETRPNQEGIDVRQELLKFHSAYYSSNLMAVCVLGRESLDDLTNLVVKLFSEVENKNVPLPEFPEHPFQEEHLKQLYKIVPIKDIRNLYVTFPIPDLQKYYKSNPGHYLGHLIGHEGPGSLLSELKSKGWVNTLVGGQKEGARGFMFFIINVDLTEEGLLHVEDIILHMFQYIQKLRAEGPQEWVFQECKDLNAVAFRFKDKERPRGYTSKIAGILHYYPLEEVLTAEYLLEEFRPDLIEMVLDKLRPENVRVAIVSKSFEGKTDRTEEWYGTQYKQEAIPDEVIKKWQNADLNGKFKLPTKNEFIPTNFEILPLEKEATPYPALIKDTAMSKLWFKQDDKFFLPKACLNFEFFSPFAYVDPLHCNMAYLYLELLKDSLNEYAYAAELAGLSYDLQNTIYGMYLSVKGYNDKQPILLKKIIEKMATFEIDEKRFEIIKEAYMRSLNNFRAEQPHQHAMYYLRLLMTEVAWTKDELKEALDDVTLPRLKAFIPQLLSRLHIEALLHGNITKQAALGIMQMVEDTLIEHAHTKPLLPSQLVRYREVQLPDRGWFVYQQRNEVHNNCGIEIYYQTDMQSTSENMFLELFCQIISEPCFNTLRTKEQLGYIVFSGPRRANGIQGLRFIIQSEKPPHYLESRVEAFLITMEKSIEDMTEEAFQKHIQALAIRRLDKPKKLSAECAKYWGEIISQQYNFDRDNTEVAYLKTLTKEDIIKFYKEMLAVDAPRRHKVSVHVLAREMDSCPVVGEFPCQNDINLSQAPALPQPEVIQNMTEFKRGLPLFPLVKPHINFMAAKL

Consider `COCc1cc(C)nc(SCC(=O)Nc2ccccc2N2CCOCC2)c1C#N`, for which the CC50 in assay [1] is > 50000 nM (active). Also, the IC50 in assay [2] was 9240 nM (active).

`Cc1nc2ccccc2n1-c1nc(-c2ccco2)cc(C(F)(F)F)n1`: the EC50 in assay [3] is > 120000 nM (not active); in assay [4], 23300 nM (inconclusive); in [5] it was 9220 nM (active); in [6], 1280 nM (active); in [7] it was 3090 nM (active); in assay [8], 5410 nM (active). In addition, the half-maximal effective concentration (EC50) is 2790 nM (active) in assay [11], 2380 nM (inconclusive) in assay [12] and 2850 nM (active) in assay [13]. For the same molecule, the concentration at half-maximal activity (AC50) in assay [9] is 820 nM (active); in [10], 1440 nM (active).

Turning to `CCO/C(O)=C1\C(C)=NC2=C(C(=O)CC(C)(C)C2)C1c1ccc2c(c1)CCCN2C` (centres undefined), in [14], the IC50 was 1650 nM (not active).

Take `COc1ccc(NC(=O)C(c2cc3c(cc2[N+](=O)[O-])OCO3)N2CC(C)CC(C)C2)cc1` (centres undefined): the IC50 in [15] is 1310 nM (active).

`NS(=O)(=O)c1ccc(-c2ccc(/C=C3\SC(=O)NC3=O)o2)cc1`: the figures for the EC50 in [16], in [17] and in assay [18] were 237 nM (active), > 300000 nM (not active) and 33400 nM (active), respectively.

With `CC(OC(=O)c1cccc(N2C(=O)c3ccccc3C2=O)c1)C(=O)Nc1ccc(N(C)C)cc1` (centres undefined), the IC50 in assay [14] is 6190 nM (not active).

With `CC(=O)O[C@@H]1/C=C/[C@](C)(O)C[C@@H](C)C/C=C/[C@H]2[C@@H]3O[C@]3(C)[C@@H](C)[C@H]3[C@H](Cc4ccccc4)NC(=O)[C@@]312` [EPOXYCYTOCHALASIN H], the EC50 in assay [3] was < 100 nM (active); in [19], 608 nM (active); in [5] it was < 100 nM (active); in [20], 431 nM (active); in assay [21], 403 nM (active); in assay [8] it was < 100 nM (active).

As for `Cc1cccc(Nc2nc(N)c(C#N)c(CC#N)c2C#N)c1`, the IC50 in [22] is > 56000 nM (not active); in assay [23], 29600 nM (not active).

`CC(=O)N(C(C)=O)c1nc(-c2ccccc2)cn1/N=C/c1ccccc1`: the IC50 in assay [22] was > 55900 nM (not active); in [23], 20000 nM (not active).

Values taken from ChEMBL document CHEMBL1201862, “PubChem BioAssay data set” (2004).
